From patent US10111874B2, “Combination therapies for treatment of cancer” (Araxes Pharma LLC, priority 2014, dated 2018)

Molecular target: T1, KRAS G12C 1-169, his-tagged protein, GDP-loaded (Homo sapiens, UniProt P01116, G12C)
T1 construct: KRAS G12C 1-169, his-tagged protein, GDP-loaded
Assay: Biochemical assay: covalent binding to KRAS G12C analyzed by mass spectrometry; note: test concentration or dose not given here
Conditions: determined at 24 hrs

T1 sequence (P01116 1-169 isoform P01116-2 G12C): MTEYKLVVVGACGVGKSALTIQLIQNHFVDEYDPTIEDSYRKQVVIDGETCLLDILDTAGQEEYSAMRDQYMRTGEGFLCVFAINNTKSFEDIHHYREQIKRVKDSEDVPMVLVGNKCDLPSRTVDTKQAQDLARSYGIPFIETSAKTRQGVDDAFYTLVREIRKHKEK

C=CC(=O)N1CCC(N2CCN(C(=O)CNc3cc(CC)c(Cl)cc3O)CC2)C1 (stereo not drawn) [II-12, 1-(3-(4-(2-(4-chloro-5-ethyl-2-hydroxyphenylamino)-acetyl)piperazin-1-yl)pyrrolidin-1-yl)prop-2-en-1-one]
Binding %: +++ (+++indicates binding activity greater than 25% and up to 50%)

C=CC(=O)N1CC(N2CCN(C(=O)c3cc(-c4cc(Cl)ccc4Cl)c(Cl)cc3OC)CC2)C1 [II-13, 1-(3-(4-(2′,5′,6-trichloro-4-methoxybiphenyl-carbonyl)piperazin-1-yl)azetidin-1-yl)prop-2-en-1-one]
Binding %: ++ (++indicates binding activity greater than 15% and up to 25%)

C=CC(=O)N1CC(N2CCN(C(=O)CNc3cc(Cl)c(F)cc3O)CC2)C1 [II-14, 1-(3-(4-(2-(5-chloro-4-fluoro-2-hydroxyphenyl-amino)acetyl)piperazin-1-yl)azetidin-1-yl)prop-2-en-1-one]
Binding %: +++ (+++indicates binding activity greater than 25% and up to 50%)

C=CC(=O)N1CC(N2CCC(C(=O)NCc3cc(Cl)c(Cl)cc3O)CC2)C1 [II-17, 1-(1-acryloylazetidin-3-yl)-N-(4,5-dichloro-2-hydroxybenzyl)piperidine-4-carboxamide]
Binding %: ++ (++indicates binding activity greater than 15% and up to 25%)

C=CC(=O)N1CC(N2CCN(C(=O)CNc3cc(Br)c(Cl)cc3O)CC2)C1 [II-18, 1-(3-(4-(2-(5-bromo-4-chloro-2-hydroxyphenyl-amino)acetyl)piperazin-1-yl)azetidin-1-yl)prop-2-en-1-one]
Binding %: ++++ (++++indicates binding activity greater than 50%)

C=CC(=O)N1CC(N2CCN(C(=O)CNc3cc(Cl)ccc3O)CC2)C1 [II-19, 1-(3-(4-(2-(5-chloro-2-hydroxyphenyl-amino)acetyl)-piperazin-1-yl)azetidin-1-yl)prop-2-en-1-one]
Binding %: +++ (+++indicates binding activity greater than 25% and up to 50%)

CN(C)C/C=C/C(=O)N1CC(N2CCN(C(=O)CNc3cc(Cl)c(Cl)cc3O)CC2)C1 [II-20, (E)-1-(3-(4-((4,5-dichloro-2-hydroxyphenyl)-glycyl)piperazin-1-yl)azetidin-1-yl)-4-(dimethylamino)but-2-en-1-one]
Binding %: ++ (++indicates binding activity greater than 15% and up to 25%)

C=CC(=O)N1CC(N2CCN(C(=O)CCn3c(=O)[nH]c4cc(Cl)c(Cl)cc43)CC2)C1 [II-21, 1-(3-(4-(1-acryloylazetidin-3-yl)piperazin-1-yl)-3-oxopropyl)-5,6-dichloro-1H-benzo[d]imidazol-2(3H)-one]
Binding %: + (+indicates binding activity from 5% to 15%)

C=CC(=O)N1CC(N2CCN(C(=O)CNc3cc(Cl)c(Cl)cc3Cl)CC2)C1 [II-22, 1-(3-(4-(2-(2,4,5-trichlorophenyl-amino)acetyl)-piperazin-1-yl)azetidin-1-yl)prop-2-en-1-one]
Binding %: + (+indicates binding activity from 5% to 15%)

C=CC(=O)N1CC(N2CCN(C(=O)CNc3cc(O)c(Cl)cc3Cl)CC2)C1 [II-23, 1-(3-(4-(2-(2,4-dichloro-5-hydroxyphenyl-amino)acetyl)piperazin-1-yl)azetidin-1-yl)prop-2-en-1-one]
Binding %: + (+indicates binding activity from 5% to 15%)

C=CC(=O)N1CC(N2CCN(C(=O)Cc3cccc4ccccc34)CC2)C1 [II-24, 1-(3-(4-(2-(naphthalen-1-yl)acetyl)piperazin-1-yl)azetidin-1-yl)prop-2-en-1-one]
Binding %: + (+indicates binding activity from 5% to 15%)

C=CC(=O)N1CC(N2CCN(C(=O)Cc3c[nH]c4ccccc34)CC2)C1 [II-25, 1-(3-(4-(2-(1H-indol-3-yl)acetyl)piperazin-1-yl)azetidin-1-yl)prop-2-en-1-one]
Binding %: + (+indicates binding activity from 5% to 15%)

C=CC(=O)N1CC(N2CCN(C(=O)CNc3cc(Cl)c(Cl)cc3C(F)(F)F)CC2)C1 [II-26, 1-(3-(4-(2-(4,5-dichloro-2-(trifluoromethyl)-phenylamino)acetyl)-piperazin-1-yl)azetidin-1-yl)prop-2-en-1-one]
Binding %: + (+indicates binding activity from 5% to 15%)

C=CC(=O)N1CC(N2CCN(C(=O)CNc3cc(O)c(Cl)c(Cl)c3)CC2)C1 [II-27, 1-(3-(4-(2-(3,4-dichloro-5-hydroxyphenyl-amino)acetyl)piperazin-1-yl)azetidin-1-yl)prop-2-en-1-one]
Binding %: ++ (++indicates binding activity greater than 15% and up to 25%)

C=CC(=O)N1CC(N2CCN(C(=O)CNc3cc(Cl)c(Br)cc3O)CC2)C1 [II-28, 1-(3-(4-(2-(4-bromo-5-chloro-2-hydroxyphenylamino)-cetyl)piperazin-1-yl)azetidin-1-yl)prop-2-en-1-one]
Binding %: +++ (+++indicates binding activity greater than 25% and up to 50%)

C=CC(=O)N1CC(N2CCN(C(=O)Cn3ccc4ccccc43)CC2)C1 [II-29, 1-(3-(4-(2-(1H-indol-1-yl)acetyl)piperazin-1-yl)azetidin-1-yl)prop-2-en-1-one]
Binding %: + (+indicates binding activity from 5% to 15%)

C=CC(=O)N1CC(N2CCN(C(=O)Cn3ccc4cc(Cl)c(Cl)cc43)CC2)C1 [II-30, 1-(3-(4-(2-(5,6-dichloro-1H-indol-1-yl)acetyl)piperazin-1-yl)azetidin-1-yl)prop-2-en-1-one]
Binding %: + (+indicates binding activity from 5% to 15%)

C=CC(=O)N1CC(N2CCN(C(=O)C(C)Nc3cc(Cl)c(Cl)cc3O)CC2)C1 (stereo not drawn) [II-31, 1-(3-(4-(2-(4,5-dichloro-2-hydroxyphenylamino)-propanoyl)-piperazin-1-yl)azetidin-1-yl)prop-2-en-1-one]
Binding %: ++++ (++++indicates binding activity greater than 50%)

C=CC(=O)N1CC(N2CCN(C(=O)CNc3cc(C)c(Cl)cc3O)CC2)C1 [II-32, 1-(3-(4-(2-(4-chloro-2-hydroxy-5-methylphenylamino)-acetyl)piperazin-1-yl)azetidin-1-yl)prop-2-en-1-one]
Binding %: ++++ (++++indicates binding activity greater than 50%)

C=CC(=O)N1CC(N2CCN(C(=O)CNc3cc(O)cc(Cl)c3)CC2)C1 [II-33, 1-(3-(4-(2-(3-chloro-5-hydroxyphenylamino)-acetyl)piperazin-1-yl)azetidin-1-yl)prop-2-en-1-one]
Binding %: + (+indicates binding activity from 5% to 15%)

C=CC(=O)N1CC(N2CCN(C(=O)CNc3cc(S(C)(=O)=O)ccc3O)CC2)C1 [II-34, 1-(3-(4-(2-(2-hydroxy-5-(methylsulfonyl)-phenylamino)acetyl)-piperazin-1-yl)azetidin-1-yl)prop-2-en-1-one]
Binding %: + (+indicates binding activity from 5% to 15%)

C=CC(=O)N1CC(N2CCN(C(=O)CNc3cc(C4CC4)c(Cl)cc3O)CC2)C1 [II-35, 1-(3-(4-(2-(4-chloro-5-cyclopropyl-2-hydroxyphenyl-amino)acetyl)piperazin-1-yl)azetidin-1-yl)prop-2-en-1-one]
Binding %: ++++ (++++indicates binding activity greater than 50%)

C=CC(=O)NC1CN(C2CN(C(=O)CNc3cc(Br)c(Cl)cc3O)C2)C1 [II-36, N-(1′-(2-(5-bromo-4-chloro-2-hydroxyphenylamino)-acetyl)-1,3′-biazetidin-3-yl)acrylamide]
Binding %: ++++ (++++indicates binding activity greater than 50%)

C=CC(=O)N1CC(N2CCN(C(=O)CNc3cc(C(F)(F)F)c(Cl)cc3OC)CC2)C1 [II-37, 1-(3-(4-(2-(4-chloro-2-methoxy-5-(trifluoromethyl)-phenylamino)acetyl)-piperazin-1-yl)azetidin-1-yl)prop-2-en-1-one]
Binding %: ++ (++indicates binding activity greater than 15% and up to 25%)

C=CC(=O)N1CC(N2CCN(C(=O)CNc3ncc(Cl)s3)CC2)C1 [II-38, 1-(3-(4-(2-(5-chlorothiazol-2-ylamino)acetyl)piperazin-1-yl)azetidin-1-yl)prop-2-en-1-one]
Binding %: + (+indicates binding activity from 5% to 15%)

C=CC(=O)N1CCN(C2CN(C(=O)CNc3cc(Cl)c(Cl)cc3O)C2)CC1 [II-39, 1-(4-(1-(2-(4,5-dichloro-2-hydroxyphenyl-amino)acetyl)azetidin-3-yl)piperazin-1-yl)prop-2-en-1-one]
Binding %: +++ (+++indicates binding activity greater than 25% and up to 50%)

C=CS(=O)(=O)N1CCN(C2CN(C(=O)CNc3cc(Cl)c(Cl)cc3O)C2)CC1 [II-40, 2-(4,5-dichloro-2-hydroxyphenylamino)-1-(3-(4-(vinylsulfonyl)-piperazin-1-yl)azetidin-1-yl)ethanone]
Binding %: ++++ (++++indicates binding activity greater than 50%)

C=CS(=O)(=O)N1CCC(N2CCN(C(=O)CNc3cc(Cl)c(Cl)cc3O)CC2)C1 (stereo not drawn) [II-41, 2-(4,5-dichloro-2-hydroxyphenylamino)-1-(4-(1-(vinylsulfonyl)-pyrrolidin-3-yl)piperazin-1-yl)ethanone]
Binding %: ++++ (++++indicates binding activity greater than 50%)

C=CC(=O)N1CC(N2CCN(C(=O)CN3CC(=O)Nc4ccccc43)CC2)C1 [II-42, 4-(2-(4-(1-acryloylazetidin-3-yl)piperazin-1-yl)-2-oxoethyl)-3,4-dihydroquinoxalin-2(1H)-one]
Binding %: + (+indicates binding activity from 5% to 15%)

C=CC(=O)N1CC(N2CCN(C(=O)CNc3cc4ccccc4cc3O)CC2)C1 [II-43, 1-(3-(4-(2-(3-hydroxynaphthalen-2-ylamino)acetyl)-piperazin-1-yl)azetidin-1-yl)prop-2-en-1-one]
Binding %: ++++ (++++indicates binding activity greater than 50%)

C=CC(=O)N1CC(N2CCN(C(=O)CNc3cc(Cl)c(Cl)c(C(N)=O)c3)CC2)C1 [II-44, 5-(2-(4-(1-acryloylazetidin-3-yl)piperazin-1-yl)-2-oxoethylamino)-2,3-dichlorobenzamide]
Binding %: + (+indicates binding activity from 5% to 15%)

C=CC(=O)NC1CN(C2CN(C(=O)CNc3cc(C4CC4)c(Cl)cc3O)C2)C1 [II-45, N-(1′-(2-(4-chloro-5-cyclopropyl-2-hydroxyphenyl-amino)acetyl)-1,3′-biazetidin-3-yl)acrylamide]
Binding %: ++++ (++++indicates binding activity greater than 50%)

C=CC(=O)N1CC(N2CCN(C(=O)CNc3cc(C=O)c(Cl)cc3OC)CC2)C1 [II-46, 5-(2-(4-(1-acryloylazetidin-3-yl)piperazin-1-yl)-2-oxoethylamino)-2-chloro-4-methoxybenzaldehyde]
Binding %: + (+indicates binding activity from 5% to 15%)
